Literature values, collected in patent US11559486B2, “Ready-to-use formulation for Vincristine Sulfate Liposome Injection” (Spectrum Pharmaceuticals, Inc., priority 2015, dated 2023).

Settings: 0.45% aqueous sodium chloride and Ringers admixtures at 25° C. to 37° C.

Row | SMILES | degradation in chloride-containing admixtures
1 | COc1cccc2c1C(=O)c1c(O)c3c(c(O)c1C2=O)C[C@@](O)(C(=O)CO)C[C@@H]3O[C@H]1C[C@H](N)[C@H](O)[C@H](C)O1 [Doxorubicin] | degrade rapidly
2 | CC[C@]1(O)C[C@H]2CN(CCc3c([nH]c4ccccc34)[C@@](C(=O)OC)(c3cc4c(cc3OC)N(C=O)[C@H]3[C@@](O)(C(=O)OC)[C@H](OC(C)=O)[C@]5(CC)C=CCN6CC[C@]43[C@@H]65)C2)C1 [vincristine, (3aR,3a^1R,4R,5S,5aR,10bR)-methyl-4-acetoxy-3a-ethyl-9-((5S,7S,9S)-5-ethyl-5-hydroxy-9-(methoxycarbonyl)-2,4,5,6,7,8,9,10-octahydro-1H-3,7-methano[1]azacycloundecino[5,4-b]indol-9-yl)-6-formyl-5-hydroxy-8-methoxy-3a,3a1,4,5,5a,6,11,12-octahydro-1H-indolizino[8,1-cd]carbazole-5-carboxylate] | degrade rapidly
